According to patent publication US11891623B2, “Generation of neural stem cells from human trophoblast stem cells” (Accelerated BioSciences Corp., priority 2010, dated 2024):

Key:
[1] = system: 6-OHDA-induced PD rats; test: Immunofluorescence tissue analysis of regeneration of the dopaminergic nigrostriatal pathway; type: in vivo
Procedure: To obtain the brain sections, rats were anesthetized by sodium pentobarbitone (60 mg/kg i.p., Apoteksbolaget, Sweden) and trans-cardially perfused with saline (50 ml, 0.9% w/v) followed by ice-cold paraformaldehyde (200 ml, 10% w/v in 0.02 M PBS) were performed at 18- and 12-week in the acute and chronic PD rats, respectively. Brain sections were subjected for immunocytochemistry, immunohistochemistry, and immunofluorescence tissue analysis as indicated.
To further verify the regeneration of the dopaminergic nigrostriatal pathway after cell therapy, immunofluorescence tissue analysis was performed (TissueGnostics Gmbh, Vienna, Austria). Brain sections were investigated, including 14 acute PD rats (i.e., 2 at 1-week and 2 at 6-week post-injury and 2 controls, 6 at 12-weeks after cell transplantation and 2 controls) and 4 chronic PD rats (i.e., 2 at 12-week after cell therapy and 2 controls). In the SNC, 6-OHDA caused progressive neural degeneration, resulting in various sizes of cavity at 6 weeks post-injury (FIG. 31).

[2] = system: Huh-7 cells; test: BBP-induced signaling in Huh-7 cells (RT-PCR, Western blot, immunofluorescence); type: cell-based, human; conditions: PD98059 20 μM, 1 h pretreatment
Procedure: Huh-7 cells (3×10^5) were seeded into a 6-well dish and incubated for 24 h. Cells cultured serum-free medium overnight were treated with BBP (1 μM) for various time intervals. After BBP stimulation, cells were washed twice with PBS. Total RNAs were extracted by TRIzol methods (Invitrogen). RNA (2 μg) was used to synthesize cDNA by Reverse Transcription System (Promega). The c-DNAs were amplified by the specific primers. The primer pairs were designed as follows: AhR, forward 5′-TACTCTGCCGCCCAAACTGG-3′ (SEQ ID NO:49), reverse 5′-GCTCTGCAACCTCCGATTCC-3′ (SEQ ID NO:50); β-actin, forward 5′-CTC GCT GTC CAC CTT CCA-3′ (SEQ ID NO:51), reverse 5′-GCT GTC ACC TTC ACC GTTC-3′ (SEQ ID NO:52). PCR conditions were set at 95° C. for 5 min and 95° C. for 30 sec, 54° C. for 30 sec, 72° C. for 1 min followed by 72° C. for 10 min (36 cycles). The products were separated by 2% agarose gels and visualized by ethidium bromide.
Huh-7 cells (1×10^6) were seeded into 10 cm dish and cultured overnight. The culture medium was changed to serum-free medium for another night. Cells were treated with BBP (1 μM) for various time intervals. […] Cells were then washed twice with ice-cold PBS and lysed by RIPA lysis buffer (Minipore). Protein concentration was measured by BCA protein assay kit (Thermo). Equal amounts of protein (30 μg protein) were resolved by 8% SDS-PAGE, transferred onto PVDF membrane, and blocked with 5% non-fat dry milk for 1 h at room temperature. After blocking, the membrane was incubated with the primary antibodies including AhR (1:1000), Cox-2 (1:1000), Gαq/11 (1:100), Gβ (1:100), β-actin (1:5000), p44/42 MAP kinase (1:1000) or phospho-p44/42 MAP kinase (1:1000) overnight at 4° C. Cells were washed three times with PBST and then incubated with HRP conjugated secondary antibodies for 1 h at room temperature. After washing, the blot was visualized using an enhanced chemiluminescence kit (ECL) (Amersham).
Cells with or without transfection by AhR siRNA were cultured and treated with BBP (1 μM) for 5 and 15 min each. After treatment with primary and secondary antibodies for AhR and Gαq/11, cells were subjected to confocal immunofluorescence microscopy to analyze the dynamic movement in the cell compartments.

[3] = system: hTS cells; test: LIF dose effect on pluripotency transcription factors in hTS cells (RT-PCR, qPCR, flow cytometry); type: cell-based, human
Procedure: The differential gene expressions of Oct4, Sox2, NANOG, fgfr2, FGF4, BMP4, Cdx2, and endogenous control β-actin (ACTB) were measured in the hTS and the hTS cells treated by 500 units LIF (Chemicon, Temecula, CA) by IQ5 Real-time PCR detection system (Bio-Rad Laboratories) that using fluorescein as an internal passive reference dye for normalization of well-to-well optical variation. PCR amplifications were carried out in a total volume of 25 μl, containing 12.5 μl of 2×SYBR Green supermix (Bio-Rad), 0.5 μl of 10 μM of each primer and 0.5 μl of cDNA samples and mixed with sterile water. The reaction was initiated at 95° C., 3 minutes, followed by 60 three-step amplification cycles consisting of 30 s denaturation at 95° C., 30 s annealing at 60° C., 15 s extension at 72° C. At final dissociation stage, it was run to generate a melting curve for verification of amplification product specificity. Real-time qPCR was monitored and analyzed by the Bio-Rad IQ5 optical system software version 2.0 (Bio-Rad). Relative mRNA levels were calculated using the comparative Ct method (Bio-Rad instruction manual) and presented with ratio to biological controls. ACTB transcript levels were confirmed to correlate well with total RNA amounts and therefore used for normalization throughout. All primer pairs used were confirmed to approximately double the amount of product within one cycle and to yield a single product of the predicted size. Primer sequences of Oct4, Sox2, NANOG, fgfr2, FGF4, BMP4, Cdx2, and endogenous control β-actin (ACTB) are shown in Supplemental Data Table 3.
Cells (5×10^6 cells/ml) were incubated with a variety of primary antibodies for 30 min and then incubated with the appropriate fluorescein isothiocyanate (FITC)-, phycoerythrin (PE)- or Rho-conjugated secondary antibody (Jackson ImmunoResearch, West Grove, PA) at adjusted dilution for 1 h at 4° C. After thorough washing, cells were re-suspended in PBS (1 ml) and subjected to flow cytometry (FACScan, BD Biosciences, San Jose, CA). The data were analyzed with Cell-Quest software (BD Biosciences).
The effects of LIF withdrawal on human trophoblast stem (hTS) cells were examined since hTS cells expresses pluripotent gene markers of both embryonic stem (ES) cells and trophoblastic stem (TS) cells such as Oct4, Nanog, Sox2, and Cdx2 (FIG. 1a). hTS cells were treated with different dosages of LIF, i.e., 500 (mimic at ampulla), 250 (mimic at mid-portion), and 125 units (mimic at isthmus) for 3 days each, showing that LIF promoted Oct4 expression but represses Cdx2, Nanog, and Sox2 expressions in a dose-dependent manner (FIG. 1b). Quantitative PCR analyses supported these findings (FIG. 1c). As the relative expression ratio of Oct4 to Cdx2 enables to determine cell fate in early embryonic differentiation (Niwa et al., 2000), the Oct4/Cdx2 ratio ([…]) appeared to be the highest at the ampulla which decreased to 0.2-fold at mid-portion and became near one at isthmic portion (FIG. 1d). This decreasing trend of Oct4/Cdx2 ratio actually facilitates the differentiation towards trophectoderm fate (Niwa et al., 2005). […] This role of rescuer was further supported by the prominently high Nanog/Oct4 ratio of LIF with 125 units compared to the ratio of LIF with 500 units and the apparent increase of Cdx2/Oct4 ratio at LIF with 125 units (FIG. 1e) No apparent change of Sox2/Cdx2 was found.

For NCCc1cc(O)c(O)cc1O [6-OHDA, 6-hydroxydopamine], the “DA (TH+) neurons in SNC compared to intact side” value ([1]; 1-week post-injury) was 48%, the “DA (TH+) neurons in striatum compared to intact side” value ([1]; 1-week post-injury) was 78% and the “DA (TH+) neurons in SNC compared to intact side” value ([1]; 6-week post-injury) was 13%. The “DA (TH+) neurons in striatum compared to intact side” value ([1]; 6-week post-injury) was 4% and the “GFAP(+) cells in lesioned striatum compared to intact side” value ([1]; 6 weeks post-injury) was 65.5%.

For COc1cccc(-c2cc(=O)c3ccccc3o2)c1N [PD98059], the “BBP-induced ERK phosphorylation and COX-2 activation” value [2] was “blocked”.

leukemia inhibitory factor [LIF] was tested, and the Oct4/Cdx2 ratio ([3]; LIF 125 units (mimic at isthmus), 3 days) was “one”, the Nanog/Cdx2 ratio ([3]; LIF 125 units, 3 days) was 2 fold and the Oct4/Cdx2 ratio ([3]; LIF 250 units (mimic at mid-portion), 3 days) was 0.2 fold. The Oct4 expression ([3]; LIF 500, 250, 125 units, 3 days) was “promoted”, the “Cdx2, Nanog, and Sox2 expressions” value ([3]; LIF 500, 250, 125 units, 3 days, dose-dependent) was “represses” and the Oct4/Cdx2 ratio ([3]; LIF 500 units (mimic at ampulla), 3 days) was 0.4 fold. The Nanog/Cdx2 ratio ([3]; LIF 500 units, 3 days) was 0.1 fold, the Nanog expression ([3]; LIF-induced cells, isthmus level (125 U/ml), flow cytometry) was 62.5% and the “RA-induced Nanog expression” value ([3]; hTS cells preincubated with RA (10 μM) overnight, then LIF 125, 250, 500 U/ml 1 day, flow cytometry) was “suppresses”.
